Data reported in ChEMBL document CHEMBL2311395, “One pot solvent free synthesis and in vitro antitubercular screening of 3-Aracylphthalides against Mycobacterium tuberculosis” (Bioorg Med Chem Lett, 2013).
In brackets after ≈: the same amount, converted by molar mass.

Tested on: Mycobacterium tuberculosis
Test: Antitubercular activity against Mycobacterium tuberculosis H37Ra ATCC 25177 assessed as growth inhibition after 8 days by XTT reduction menadione assay
Assay type: functional, organism-based
Details: H37Ra ATCC 25177, 192 h

`O=C(CC1OC(=O)c2ccccc21)c1ccc(Cl)cc1` (centres undefined) gave an IC50 of 0.97 µg/mL (≈ 3.38 µM).
With `NNC(=O)c1ccncc1` [ISONIAZID] the IC90 was 0.125 µg/mL (≈ 0.911 µM).
`O=C(CC1OC(=O)c2ccccc21)c1ccco1` (centres undefined) gave an IC50 of 0.81 µg/mL (≈ 3.34 µM).
For `O=C(CC1OC(=O)c2ccccc21)c1cccs1` (centres undefined), the IC50 was 1.24 µg/mL (≈ 4.8 µM).
